Test results published in patent publication US20040093331A1, “Computer program products, systems and methods for information discovery and relational analyses” (Board of Regents, University of Texas System, priority 2002, published 2004).

System: cardiac hypertrophy
Assay: Isoproterenol-induced cardiac hypertrophy in mice, osmotic micro-infusion pumps, echocardiography before and 7 days after start of infusion
Assay type: in vivo
Experimental: Validation of a relevant relationship between chlorpromazine and cardiac hypertrophy was performed through a series of laboratory studies in mice comparing the effects of a known beta-adrenergic agonist (also known to induce hypertrophy), isoproterenol, with isoproterenol plus chlorpromazine.
In brief, the study included 2 groups of 8 mice fitted with osmotic micro-infusion pumps. One group was given a continuous dose of 20 mg/kg/day isoproterenol and the other 20 mg/kg/day isopreterenol+10 mg/kg/day chlorpromazine. A smaller dose of chlorpromazine was chosen in preference to a larger one to minimize alterations in feeding behavior. Additionally, it reduced an adverse reaction between chlorpromazine and avertin (tribromoethanol), a anesthetic agent. Echocardiograms were taken before treatment and 7 days after initiation of infusions. Mice were sacrificed and their heart weighed.
FIG. 19 and TABLE 22 summarize the study findings. Generally, cardiac hypertrophy (as assessed by echocardiography) was reduced in mice treated with chlorpromazine plus isoproterenol. […] Echocardiography was use to estimate the change in weight or thickness of several different cardiac structures over the course of treatment. For FIG. 19, ten mice received isoproterenol (ISO) and eight received isoproterenol and chlorpromazine (CPZ+ISO), where LVW=left ventricle weight (CPZ+ISO 11±27%, ISO 51±43%, P<0.02); LVMI=left ventricular mass index (CPZ+ISO 11±28%, ISO 50±52%, P<0.04); PWT=posterior wall thickness (CPZ+ISO 16±16%, ISO 36±27%, P<0.05), IVSWT=intraventricular septum wall thickness (CPZ+ISO 19±18%, ISO 31±20%, P<0.12).

CN(C)CCCN1c2ccccc2Sc2ccc(Cl)cc21 [chlorpromazine]
cardiac hypertrophy (as assessed by echocardiography) (10 mg/kg/day chlorpromazine + 20 mg/kg/day isoproterenol versus isoproterenol alone, mice): protected the mice against the development of cardiac hypertrophy

C=CCN1CC[C@]23c4c5ccc(O)c4O[C@H]2C(=O)CC[C@@]3(O)[C@H]1C5 [Naloxone]
effect of the drug in a mouse model of cardiohypertrophy (mouse model as described for chlorpromazine, values not given): validated in vivo

CC(C)NCC(O)c1ccc(O)c(O)c1 (stereo not shown) [ISO, isoproterenol]
LVMI=left ventricular mass index (FIG. 19, change over course of treatment, echocardiography, P<0.04): 50±52% | PWT=posterior wall thickness (FIG. 19, change over course of treatment, echocardiography, P<0.05): 36±27% | IVSWT=intraventricular septum wall thickness (FIG. 19, change over course of treatment, echocardiography, P<0.12): 31±20% | LVW=left ventricle weight (FIG. 19, change over course of treatment, echocardiography, ten mice ISO, eight CPZ+ISO, P<0.02): 51±43% | DI VS WT (Table 22, change in intraventricular septum wall thickness over treatment, echocardiography, 7 days infusion): 31% ± 21% | LLVW (Table 22, change in left ventricle weight over treatment, echocardiography, 20 mg/kg/day isoproterenol with or without 10 mg/kg/day chlorpromazine, 7 days): 53% ± 45% | OLVMI (Table 22, change in left ventricular mass index over treatment, echocardiography, 7 days infusion): 50% ± 55% | OPWT (Table 22, change in posterior wall thickness over treatment, echocardiography, 7 days infusion): 36% ± 28%
